Tests used:
[1] = system: pentagastrin-stimulated acid secretion of the perfused rat stomach; assay: Secretion-inhibiting action on the perfused rat stomach (pentagastrin-stimulated acid secretion, intraduodenal administration in vivo); conditions: anesthetized female CD rat, dose 1.0 μmol/kg i.d.
Text: Testing of the Secretion-inhibiting Action on the Perfused Rat Stomach
In Table A which follows, the influence of the compounds according to the invention on the pentagastrin-stimulated acid secretion of the perfused rat stomach after intraduodenal administration in vivo is shown.
The abdomen of anesthetized rats (CD rat, female, 200-250 g; 1.5 g/kg i.m. urethane) was opened after tracheotomy by a median upper abdominal incision and a PVC catheter was fixed transorally in the esophagus and another via the pylorus such that the ends of the tubes just projected into the gastric lumen. The catheter leading from the pylorus led outward into the right abdominal wall through a side opening.
After thorough rinsing (about 50-100 ml), warm (37° C.) physiological NaCl solution was continuously passed through the stomach (0.5 ml/min, pH 6.8-6.9; Braun-Unita I). The pH (pH meter 632, glass electrode EA 147; φ=5 mm, Metrohm) and, by titration with a freshly prepared 0.01N NaOH solution to pH 7 (Dosimat 665 Metrohm), the secreted HCl were determined in the effluent in each case collected at an interval of 15 minutes.
The gastric secretion was stimulated by continuous infusion of […] (=1.65 ml/h) of i.v. pentagastrin (left femoral vein) about 30 min after the end of the operation (i.e. after determination of 2 preliminary fractions). […]

Row | Compound | melting point [°C] | Inhibition of acid secretion [1] [%]
1 | CCc1cccc(C)c1CNc1cc(C(=O)OC)cn2c(C)nnc12 [Example 1, 8-(2-Ethyl-6-methyl-benzylamino)-3-methyl[1,2,4]triazolo[4,3-a]pyridine-6-carboxylic acid methyl ester] | 214.4 | 
2 | CCc1cccc(C)c1CNc1cc(C(=O)O)cn2c(C)nnc12 [Example 2, 8-(2-Ethyl-6-methyl-benzylamino)-3-methyl[1,2,4]triazolo[4,3-a]pyridine-6-carboxylic acid] | 328.1 | 
3 | CCc1cccc(C)c1CNc1cc(C(=O)N(C)C)cn2c(C)nnc12 [Example 3, 8-(2-Ethyl-6-methylbenzylamino)-N,N,3-trimethyl[1,2,4]triazolo[4,3-a]pyridine-6-carboxamide] | 201.3 | >30
4 | CCc1cccc(C)c1CNc1cc(C(=O)NCCOC)cn2c(C)nnc12 [Example 4, 8-(2-Ethyl-6-methylbenzylamino)-N-(2-methoxyethyl)-3-methyl[1,2,4]triazolo-[4,3-a]pyridine-6-arboxamide] |  | >30

From US20070167427A1, “1,2,4-Triazolo[4,3-a]pyridines useful in the treatment of gastrointestinal disorders” (Altana Pharma AG, priority 2004, published 2007)
